What all share (assay): NCI tumour cell line growth inhibition, 48 h
The subject of experiment [1] is HCC 2998.
Experiment [2] relates to RXF 393.
The subject of experiment [3] is OVCAR-8.
Experiment [4] relates to NCI-H522.
Experiment [5] relates to SK-MEL-28.
In experiment [6] the test system is LOX IMVI.
Experiment [7] deals with Malme-3M.
Experiment [8] concerns TK-10.
In experiment [9] the test system is SK-MEL-2.
The subject of experiment [10] is HT-29.
In experiment [11] the test system is NCI-H460.
Experiment [12] deals with ACHN.
In experiment [13] the test system is IGROV-1.
In experiment [14] the test system is HCT-15.
For experiment [15], the system named is SNB-75.
Experiment [16] relates to UO-31.
Experiment [17] relates to UACC-62.

Data on 10 compounds can be found in ChEMBL document CHEMBL1201862, “PubChem BioAssay data set” (2004).

The structures appear in SMILES notation.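 Where inhibition never reached the appropriate level, the endpoint shown equals the highest concentration tested. Otherwise, values were interpolated linearly from a five-concentration, 48-hour dose response in 96-well plates. GI50 marks 50% less growth.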 The source made the active and inactive calls. No stated cut-off is given here; in the data, active = GI50 up to about 1.1 µM and inactive = higher.

Consider `FC(F)(F)C12C34C=CC5(CCC6(C=CC1(CC3)O6)C52C(F)(F)F)O4` (configuration not stated), for which the GI50 in experiment [1] is > 100 µM (inactive); in experiment [2], 93.5 µM (inactive); in [3], > 100 µM (inactive); in experiment [4] it was > 100 µM (inactive); in [5] it was > 100 µM (inactive); in experiment [6], > 100 µM (inactive). The GI50 in experiment [7], in experiment [8], in experiment [9], in experiment [10], in [11] and in [12] was > 100 µM (inactive) throughout. Moreover, the GI50 in experiment [13] was > 100 µM (inactive).

As to `CC(=O)OC1C/C(C)=C/[C@H](O)CC(C)/C=C/[C@@]2(C)CCC(C(C)(C)O)C12` (some centres not stated), the GI50 is > 100 µM (inactive) in [1]; > 100 µM (inactive) in experiment [2]; > 100 µM (inactive) in experiment [3]; > 100 µM (inactive) in experiment [5]; > 100 µM (inactive) in experiment [6]; more than 100 µM in experiment [14]. Moreover, the GI50 in experiment [7], in experiment [8], in [9], in [10], in experiment [11] and in [12] was > 100 µM (inactive) in each case. In addition, the GI50 in experiment [15], in [13], in experiment [16] and in experiment [17] was > 100 µM (inactive) throughout.

As to `Nc1ccc(-c2cc(C(=O)Nc3nccs3)nc(S)n2)cc1`, the GI50 in experiment [2] was > 100 µM (inactive); in [3], > 100 µM (inactive); in [4], > 100 µM (inactive); in experiment [5], > 100 µM (inactive); in experiment [6], > 100 µM (inactive); in experiment [14], more than 100 µM. Also, the GI50 in experiment [7], in experiment [8], in [9], in experiment [10], in [12] and in experiment [15] was > 100 µM (inactive) each time. The GI50 in experiment [13], in [16] and in [17] was > 100 µM (inactive) in each case.

Turning to `CCNc1nnc(CSc2nc(-c3ccccc3)c(-c3ccccc3)[nH]2)s1`, the GI50 was 14 µM (inactive) in experiment [3]; 19.9 µM (inactive) in experiment [4]; 14.6 µM (inactive) in experiment [5]; 16.5 µM (inactive) in experiment [6]; 18.3 µM in [14]; 21.5 µM (inactive) in experiment [7]. For the same compound, the GI50 in experiment [8] is 18.5 µM (inactive); in experiment [9], 20.8 µM (inactive); in experiment [10], 19.6 µM (inactive); in experiment [11] it was 24.9 µM (inactive); in [12], 23.3 µM (inactive); in experiment [15], 23 µM (inactive). The GI50 in experiment [16] was 14 µM (inactive).

In the case of `O=C1CC(c2c(-c3ccccc3)[nH]c3ccccc23)C(=O)N1` (configuration not stated), the GI50 was > 100 µM (inactive) in [1]; > 100 µM (inactive) in experiment [2]; > 100 µM (inactive) in [3]; > 100 µM (inactive) in experiment [5]; more than 100 µM in experiment [14]; > 100 µM (inactive) in experiment [7]. Moreover, the GI50 is > 100 µM (inactive) in experiment [8]; > 100 µM (inactive) in [9]; > 100 µM (inactive) in [10]; > 100 µM (inactive) in experiment [11]; > 100 µM (inactive) in experiment [12]; 35.4 µM (inactive) in experiment [15]. Also, the GI50 was > 100 µM (inactive) in [13], 76.6 µM (inactive) in experiment [16] and 89.3 µM (inactive) in experiment [17].

For the compound `CC(=O)N1C(NN(C)C)CCN1c1ccccc1` (configuration not stated), the GI50 in [1] is > 10 µM (inactive); in [2], > 10 µM (inactive); in [3], > 10 µM (inactive); in experiment [5], > 10 µM (inactive); in experiment [14], more than 10 µM; in experiment [7], > 10 µM (inactive). For the same compound, the GI50 in [8], in experiment [10], in [15], in [13] and in experiment [17] was > 10 µM (inactive) each time.

As to `Cn1c(N)[n+](C(=O)OCc2ccccc2)c(=O)c2c1ncn2C(=O)OCc1ccccc1`, the GI50 in experiment [1] is > 100 µM (inactive); in experiment [3], > 100 µM (inactive); in experiment [4], 30.9 µM (inactive); in experiment [5] it was > 100 µM (inactive); in experiment [6], > 100 µM (inactive); in experiment [14], more than 100 µM. Also, the GI50 was > 100 µM (inactive) in [7]; 46.7 µM (inactive) in experiment [8]; > 100 µM (inactive) in experiment [9]; > 100 µM (inactive) in experiment [10]; > 100 µM (inactive) in [11]; 24.4 µM (inactive) in [12]. Besides, the GI50 in [15] is 24 µM (inactive); in experiment [13] it was > 100 µM (inactive); in [16] it was 14.4 µM (inactive); in experiment [17] it was > 100 µM (inactive).

Regarding `Cc1c(/C=N/NS(=O)(=O)c2ccccc2)no[n+]1[O-]`, the GI50 in experiment [2] is > 100 µM (inactive); in [3] it was > 100 µM (inactive); in experiment [4] it was > 100 µM (inactive); in [5], > 100 µM (inactive); in experiment [14], more than 100 µM; in [7] it was > 100 µM (inactive). Besides, the GI50 in [8] was > 100 µM (inactive); in [9], > 100 µM (inactive); in [10], > 100 µM (inactive); in experiment [13], > 100 µM (inactive); in experiment [16], 2.92 µM (inactive); in experiment [17], > 100 µM (inactive).

For `Cn1c(O)c(C(=O)NC2CCCCC2)c(=O)n(C)c1=S`, the GI50 was 4.33 µM (inactive) in [3]; 3.58 µM (inactive) in experiment [4]; 4.61 µM (inactive) in experiment [5]; 8.81 µM (inactive) in [6]; 5.02 µM in [14]; 6.32 µM (inactive) in [8]. The GI50 was 5.11 µM (inactive) in experiment [9]; 6.1 µM (inactive) in experiment [11]; 3.57 µM (inactive) in [12]; 4.89 µM (inactive) in experiment [13]; 3.24 µM (inactive) in experiment [16]; 4.57 µM (inactive) in experiment [17].

Take `COc1cc2ccc3c4cc(OC)c(OCc5ccccc5)cc4cnc3c2cc1OC`: the GI50 in [1], in [3], in experiment [4], in experiment [5], in [7] and in experiment [8] was > 100 µM (inactive) throughout. Also, the GI50 in [9], in [10], in [11], in experiment [12], in experiment [15] and in [13] was > 100 µM (inactive) throughout. Also, the GI50 in experiment [16] is 70 µM (inactive); in [17] it was > 100 µM (inactive).
